Data set [1] relates to Xenopus embryos. As to the kind of experiment: Drug exposure of Xenopus embryos, hyper-pigmentation phenotype. The text has this: Ivermectin is known to open vertebrate GlyCl channels, resulting in chloride flux through the membrane (Schonrock, B., and Bormann, J. (1993) Naunyn Schmiedebergs Arch Pharmacol 348, 628-632; Shan, Q., Haddrill, J. L., and Lynch, J. W. (2001) J Biol Chem 276, 12556-12564.).
Xenopus embryos were collected according to standard protocols (Sive, Grainger et al. 2000) in 0.1× Modified Marc's Ringers (MMR) pH 7.8+0.1% Gentamycin. Xenopus embryos were staged according to Nieuwkoop and Faber 1967.
(§1) Stocks of ivermectin (sigma) were kept at 10 mM concentration in DMSO. Embryo exposure occurred at a 1:1000 dilution (10 μM) in MMR for the stages indicated in each experiment. […] Stocks of strychnine were kept at 1 g in 6 ml of water; embryos were treated with 100 μl of stock in 10 ml of MMR. Drugs and media were replaced every 48 hours.

The test system of data set [2] is Xenopus embryos. As to the kind of experiment: Ivermectin exposure in MMR with varying levels of chloride. Conditions: for % hyper-pigmented / Hyper-pigmented (number of embryos) / Normal pigmentation (number of embryos): 10 μM ivermectin from stage 10. Type of data set: in vivo. The procedure: We next sought to determine whether the alteration of melanocyte behavior was due to GlyCl-dependent changes in transmembrane potential. The intracellular concentration of chloride in an embryo is approximately 60 mM while the extracellular concentration of Modified Marc's Ringers (MMR), the solution in which the embryos are maintained, is 10 mM. If ivermectin constitutively opens chloride channels, ivermectin treatment would be expected to cause an efflux of Cl^− ions, thus resulting in depolarization of the cell membrane. Conversely, if the concentration of external chloride were raised above intracellular levels, chloride ions would enter cells following treatment with ivermectin, thus maintaining a hyperpolarized membrane potential. To test this hypothesis, we raised the concentration of chloride in the extracellular MMR media to 30 mM, 60 mM, or 90 mM and examined the resulting phenotype following ivermectin exposure.
Embryos were exposed to the chloride activator ivermectin (10 μM) from stage 10 throughout development in MMR containing varying levels of chloride.
as §1

Data set [3] relates to Xenopus embryos. The experiment in a line: Ivermectin-induced hyper-pigmentation with blockers of voltage sensitive pathways. It is filed as in vivo. The note with it: for effect on ivermectin-induced hyper-pigmentation: with 10 μM ivermectin, 0.1 mM cadmium chloride, 0.1 mM verapamil, 50 mM lindane, 20 mM fluoxetine. The procedure:
We next sought to examine how changes in membrane voltage are translated into downstream signaling. In order to determine the signaling molecules responding to ivermectin induced depolarization, we examined three known voltage sensitive pathways: calcium, serotonin, and gap junctions. We capitalized on the existence of drugs known to block each of these pathways to determine if any were downstream of ivermectin signaling.
Embryos were exposed to 10 μM ivermectin from stage 10 throughout development. […] The following methods were used in conducting the experiments detailed above.
as §1

A further data set deals with melanocytes. The experiment in a line: Melanocyte counts in ivermectin-exposed Xenopus embryos. Type of data set: in vivo. The procedure:
We examined whether there is a critical period of ivermectin exposure required for hyperpigmentation. […] One set of animals was exposed to 10 μM ivermectin from stages 10-24 (gastrulation through the completion of neurulation), while the second set were exposed from stages 28-46 (tailbud through tadpole). Early exposed embryos were washed 3× in 0.5×MMR post exposure and transferred to a new dish to remove all drug from the environment.
In order to evaluate the number of melanocytes between treatments, early vs. late exposed embryos were anesthetized in tricane, and then photographed. We then counted the number of melanocytes within the eye region (FIG. 2A, B), and compared each treatment to age-matched control siblings. […] In comparison, embryos exposed to ivermectin during gastrulation and neurogenesis, the time when a subset of neural crest cells become fated to differentiate along a melanocyte fate, show a 1.5 fold increase in melanocyte number compared to controls (FIG. 2C).
Melanocytes were counted by cellAnalyst software (AssaySoft, Inc) on digital photographs of anesthetized larvae. Adobe Illustrator (Adobe Systems Inc) was used to define the dorsal region between the eyes used for counting. Tail regions were defined using digital photographs, starting at the most posterior tip of the tail and counting all melanocytes within a 400 pixel square bounding box extending anteriorly.

Another data set has as its system human melanocytes. The experiment in a line: Imaging membrane voltage using CC2-DMPE and DiBAC4(3). Type of data set: cell-based. Conditions: high potassium media, CC2-DMPE and DiBAC4 dyes. The procedure:
CC2-DMPE (N-(6-chloro-7-hydroxycoumarin-3-carbonyl)-dimyristoylphosphatidyl ethanolamine), a coumarin phospholipid, and DiBAC4(3) (bis-(1,3-dibutylbarbituric acid) trimethine oxonol) were purchased from Invitrogen. Stock CC2-DMPE solution was prepared according to manufacturer directions; briefly, a 5 mM stock (in DMSO) was prepared, aliquoted, and stored at −20° C. until immediately before use. DiBAC4(3) stock (1.9 mM in DMSO) was prepared and stored at room temperature. CC2-DMPE stock was dissolved 1:1000 directly into DMEM. DiBAC4(3) stock was dissolved 1:2 in DMSO, then spun at rcf 20,800 for 10 minutes to remove undissolved particles of dye. Supernate was then diluted 1:4000 in DMEM. 1 mL of CC2-DMPE is added to cells grown in 35 mm FluoroDish Sterile Culture Dishes. Cells are incubated for 30 minutes, then washed twice with plain DMEM. 1-2 mLs of DiBAC4(3) are then added to the dish. Cells are incubated at least 30 minutes before imaging begins; cells are imaged while in the DiBAC4(3) bath. A round coverslip is dropped into the dish, and any medium outside the well is removed. […]
An Olympus BX-61 equipped with a Hamamatsu ORCA AG CCD camera, and controlled by IPLabs, was used for imaging. […] No calibration was performed; nonetheless, pixel intensity within and among images can be compared for relative quantification. […]

The subject of data set [4] is human epidermal melanocytes. As to the kind of experiment: Human melanocyte culture in high potassium media, proliferation and dendrite analysis. Type of data set: cell-based. The text has this: After finding that Xenopus melanocytes responded to modulations in membrane potential, we examined human epidermal melanocytes to assess the impact of membrane depolarization on cell phenotype. For these studies, ivermectin could not be used to depolarize the membrane because the culture medium used to maintain the cells has a much higher chloride ion concentration then that observed intracellularly in these particular cells. Thus, membrane potential was modulated by raising the extracellular potassium concentration by addition of potassium gluconate to the media.
Following two days of culture in 50 mM potassium gluconate supplemented media, human melanocytes developed a highly […] morphology, with a number of cells showing five or more such projections (compare FIGS. 6a and b). […] To verify that melanocytes grown in high potassium medium were in fact depolarized we made use of membrane voltage imaging using CC2-DMPE and DiBAC4 dyes, which allow visualization of the membrane potential (FIG. 6, d and e).
Human melanocytes were obtained commercially and cultured in DermaLife M Melanocyte culture medium (Lifeline Cell Technology, Walkersville, Md.). Cells were maintained within standard 50 ml culture flasks (BD Bioscience, San Jose, Calif.), and were fed with 10 ml warm media every other day. Upon reaching confluence, melanocytes were passaged using a standard trypsonization protocol, and new colonies were seeded at approximately 5,000 cells per cm^2.
For dendrite analysis, cells were imaged on a Nikon AZ100M stereo microscope and the numbers of dendrites on all cells within the field of vision were counted. Cell culture in high potassium media was repeated three times, and the results averaged for statistical analysis.

[5] abbreviates: ivermectin from gastrulation throughout development.
Where [6] appears, read: 10 μM ivermectin from stage 10 throughout development, second drug concurrently.
[7] abbreviates: older tadpoles (beyond stage 46) exposed to ivermectin.

Entries after “also recorded” stand apart in the source; their conditions may differ.

Results on six compounds are retold here after patent US20120295346A1, “METHODS AND COMPOSITIONS FOR MODULATING MEMBRANE POTENTIAL TO INFLUENCE CELL BEHAVIOR” (Tufts University, priority 2009, published 2012).

Turning to ivermectin, in the data set with Xenopus embryos [1] (setting [5]), the “melanocyte morphology compared to wild type siblings” value is “take on a dendritic morphology”, the “other disruptions of normal development” value is given as “not accompanied by any other observable disruptions of normal development” and the “treated embryos/larvae developing hyper-pigmentation” value amounted to 98%. Further, in the data set with Xenopus embryos [2] (10 mM Cl−), the “% hyper-pigmented” value amounted to 100%, the “Hyper-pigmented (number of embryos)” value was 25 and the “Normal pigmentation (number of embryos)” value is reported as 0. Moreover, in the data set with Xenopus embryos [2] (30 mM Cl−), the “% hyper-pigmented” value stood at 95.8%, the “Hyper-pigmented (number of embryos)” value is given as 23 and the “Normal pigmentation (number of embryos)” value is on record as 1. In the data set on Xenopus embryos [2] (60 mM Cl−), the “% hyper-pigmented” value was 21.7%, the “Hyper-pigmented (number of embryos)” value was found to be 5 and the “Normal pigmentation (number of embryos)” value was 18. In the data set with Xenopus embryos [2] (90 mM Cl−), the “% hyper-pigmented” value was 0%, the “Hyper-pigmented (number of embryos)” value was found to be 0 and the “Normal pigmentation (number of embryos)” value worked out at 32. Further, the “ivermectin hyper-pigmentation phenotype in words” value in the data set on Xenopus embryos [2] (extracellular chloride 10 mM) is recorded as “strong hyper-pigmentation”. Moreover, the “ivermectin hyper-pigmentation phenotype in words” value with Xenopus embryos [2] (extracellular chloride 30 mM) is recorded as “did not inhibit hyper-pigmentation; also recorded: strong hyper-pigmentation”. For the same compound, the “ivermectin hyper-pigmentation phenotype in words” value with Xenopus embryos [2] (extracellular chloride 60 mM) is recorded as “suppressed; also recorded: partial inhibition”. Moreover, the “ivermectin hyper-pigmentation phenotype in words” value with Xenopus embryos [2] (extracellular chloride 90 mM) is “completely inhibited; also recorded: complete inhibition”. The “incidence of hyper-pigmentation in words” value in the data set on Xenopus embryos [3] (10 μM ivermectin alone) was “strong incidence of hyper-pigmentation”. For the same compound, in the data set on Xenopus embryos [3] (setting [6]), the “% hyper-pigmented” value is reported as 95.3%, the “Hyper-pigmented tadpoles (number)” value was 61 and the “WT tadpoles (number)” value turned out to be 3. The “increase in melanocyte number in eye field relative to controls” value with melanocytes (10 μM ivermectin, early exposure stages 10-24) was 1.5 fold. Besides, the “melanocyte number in eye field relative to controls” value in the data set with melanocytes (10 μM ivermectin, late exposure stages 28-46, at stage 46) was “do not show a significant increase; also recorded: no detectible difference”. Besides, the “increase in melanocyte counts in the tip of the tail” value in the data set on melanocytes (ivermectin throughout development) stood at 1.5 fold. Besides, in the data set with melanocytes (setting [7]), the “generation of more melanocytes” value is given as “do not appear to generate more melanocytes” and the “time to expansion of pigment cells” value is ≤ 24 h.
For the compound `NCC(=O)O` [glycine], the hyper-pigmentation phenotype entry in the data set on Xenopus embryos [1] (3 mM glycine, exposure throughout development) is “induced the same hyperpigmented phenotype as ivermectin; also recorded: induces hyper-pigmentation at a similar level to ivermectin exposure”.
With `O=C([O-])[C@H](O)[C@@H](O)[C@H](O)[C@H](O)CO.[K+]` [potassium gluconate], the “membrane potential of treated cells compared to controls” value in the data set on human melanocytes was “depolarization”. The “effect on growth in potassium dose response screen” value in data set [4] (40 mM potassium gluconate) is “non-inhibitory to growth”. Further, the “cell proliferation, standard vs high potassium media” value in data set [4] (50 mM potassium gluconate supplemented media) was “No measurable differences in cell proliferation”. For the same compound, in data set [4] (50 mM potassium gluconate supplemented media, two days of culture), the “dendricity / number of projections of melanocytes” value is given as “significant effect on the number of projections; also recorded: significant effect of potassium gluconate on dendricity”.
Regarding `[Cl][Cd][Cl]` [cadmium chloride], the “effect on ivermectin-induced hyper-pigmentation” value in the data set with Xenopus embryos [3] is on record as “did not result in any reduction; also recorded: did not inhibit hyper-pigmentation”.
On to `CNCCC(Oc1ccc(C(F)(F)F)cc1)c1ccccc1` (stereo not shown) [fluoxetine], for which, in the data set with Xenopus embryos [3], the “effect on ivermectin-induced hyper-pigmentation” value is on record as “blocked ivermectin-induced hyper-pigmentation in all of the treated embryos; also recorded: completely inhibited”.
With `Cl[C@H]1[C@H](Cl)[C@@H](Cl)[C@@H](Cl)[C@H](Cl)[C@H]1Cl` [lindane], the “effect on ivermectin-induced hyper-pigmentation” value is listed as “did not result in any reduction” in the data set on Xenopus embryos [3] and “did not inhibit hyper-pigmentation” in the data set with Xenopus embryos [3] (listed as lindine).
